Broadly, the Dmax is the greatest extent of degradation seen. Low readings indicate shallow degradation, high ones deep degradation.

9 compounds from patent US11739101B2, “Bifunctional degraders of hematopoietic progenitor kinase and therapeutic uses thereof” (Nurix Therapeutics, Inc., priority 2020, dated 2023) can be followed below.

Molecules are shown by their SMILES.

T1 sequence (Q92918 whole entry): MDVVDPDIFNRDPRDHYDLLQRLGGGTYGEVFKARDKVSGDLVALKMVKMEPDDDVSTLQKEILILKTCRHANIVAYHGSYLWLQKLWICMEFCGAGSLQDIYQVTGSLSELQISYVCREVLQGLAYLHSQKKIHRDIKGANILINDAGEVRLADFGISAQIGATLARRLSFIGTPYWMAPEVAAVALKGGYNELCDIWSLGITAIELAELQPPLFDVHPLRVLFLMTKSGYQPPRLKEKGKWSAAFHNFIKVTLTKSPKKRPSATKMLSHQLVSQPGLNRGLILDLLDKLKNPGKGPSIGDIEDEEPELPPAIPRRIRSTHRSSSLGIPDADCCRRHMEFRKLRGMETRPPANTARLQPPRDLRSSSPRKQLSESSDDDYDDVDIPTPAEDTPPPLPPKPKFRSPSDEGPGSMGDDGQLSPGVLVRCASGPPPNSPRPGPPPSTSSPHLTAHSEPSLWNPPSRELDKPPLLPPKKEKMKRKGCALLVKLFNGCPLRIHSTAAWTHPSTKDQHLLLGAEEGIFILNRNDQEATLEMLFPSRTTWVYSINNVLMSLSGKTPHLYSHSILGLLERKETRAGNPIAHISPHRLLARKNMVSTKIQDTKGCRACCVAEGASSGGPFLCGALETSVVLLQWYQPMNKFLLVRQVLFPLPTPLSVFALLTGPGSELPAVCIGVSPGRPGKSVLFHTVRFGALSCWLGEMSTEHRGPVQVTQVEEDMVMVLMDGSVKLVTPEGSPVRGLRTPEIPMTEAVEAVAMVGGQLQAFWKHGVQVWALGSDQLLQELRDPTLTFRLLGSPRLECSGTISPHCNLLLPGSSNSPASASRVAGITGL

The assay addresses T1, HPK1 (Homo sapiens, UniProt Q92918).
T1 construct: A HiBiT tag was introduced by CRISPR on the N terminus of HPK1 in Jurkat cells; host or cells: Jurkat (ATCC TIB-152), monoclonal CRISPR HiBiT knock-in line
Description: HPK1 Cellular HiBiT Degradation Assay. The note with it: HiBiT-tagged HPK1 Jurkat cells, 24 hours, 10 uM to 0.1 nM; Dmax = 100 minus lowest % HPK1 remaining vs DMSO vehicle. It is filed as cell-based. The gist of the method: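 Dmax is derived from four-parameter curves of % HPK1 remaining, as 100 minus the lowest value, normalized to DMSO-treated cells with parental Jurkat background subtracted. HiBiT-HPK1 knock-in Jurkat cells got compound for 24 hours (final 10 uM to 0.1 nM, 11 points) before lytic HiBiT luminescence. Cytotoxicity was checked on parallel CellTiter-Glo plates.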
(In general: The HiBiT peptide binds its large partner to form an active luciferase.)
Regarding `Cc1cc(F)c(Nc2nc(-c3ccc4c(c3)N([C@H]3C[C@@H](N5CCCCC5)C3)C(=O)C43CCN(C(=O)[C@H]4CC[C@H](C(=O)N5CCC(Nc6cccc7c6C(=O)N(C6CCC(=O)NC6=O)C7=O)CC5)CC4)CC3)cc3ncn(C(C)C)c23)cc1C(=O)NC(C)C` (stereo partly drawn) [Example 51, 4-fluoro-2-methyl-5-[(6-{2-oxo-1′-[(R,4R)-4-[4-({2-[2,6-dioxopiperidin-3-yl]-1,3-dioxo-2,3-dihydro-1H-isoindol-4-yl}amino)piperidine-1-carbonyl]cyclohexanecarbonyl]-1-[(1s,3s)-3-(piperidin-1-yl)cyclobutyl]-1,2-dihydrospiro[indole-3,4′-piperidin]-6-yl}-3-(propan-2-yl)-3H-imidazo[4,5-c]pyridin-4-yl)amino]-N-(propan-2-yl)benzamide], the Dmax fell in the range of 45 to 65%.

For `Cc1cc(F)c(Nc2nc(-c3ccc4c(c3)N([C@H]3C[C@@H](N5CCCCC5)C3)C(=O)C43CCN(C(=O)C4CCN(C(=O)CC5CCN(c6cccc7c6C(=O)N(C6CCC(=O)NC6=O)C7=O)CC5)CC4)CC3)cc3ncn(C(C)C)c23)cc1C(=O)NC(C)C` (stereo partly drawn) [Example 36, 5-{[6-(1′-{1-[2-(1-{2-[2,6-dioxopiperidin-3-yl]-1,3-dioxo-2,3-dihydro-1H-isoindol-4-yl}piperidin-4-yl)acetyl]piperidine-4-carbonyl}-2-oxo-1-[(1s,3s)-3-(piperidin-1-yl)cyclobutyl]-1,2-dihydrospiro[indole-3,4′-piperidin]-6-yl)-3-(propan-2-yl)-3H-imidazo[4,5-c]pyridin-4-yl]amino}-4-fluoro-2-methyl-N-(propan-2-yl)benzamide], the Dmax is < 45%.

In turn, `Cc1cc(F)c(Nc2nc(-c3ccc4c(c3)N([C@H]3C[C@@H](N5CCCCC5)C3)C(=O)C43CCN(C(=O)c4ccn(C5CCN(Cc6cccc7c6C(=O)N(C6CCC(=O)NC6=O)C7=O)CC5)n4)CC3)cc3ncn(C(C)C)c23)cc1C(=O)NC(C)C` (stereo partly drawn) [Example 65, 5-{[6-(1′-{1-[1-({2-[2,6-dioxopiperidin-3-yl]-1,3-dioxo-2,3-dihydro-1H-isoindol-4-yl}methyl)piperidin-4-yl]-1H-pyrazole-3-carbonyl}-2-oxo-1-[(1s,3s)-3-(piperidin-1-yl)cyclobutyl]-1,2-dihydrospiro[indole-3,4′-piperidin]-6-yl)-3-(propan-2-yl)-3H-imidazo[4,5-c]pyridin-4-yl]amino}-4-fluoro-2-methyl-N-(propan-2-yl)benzamide] had a Dmax of 45 to 65%.

For the compound `Cc1cc(F)c(Nc2nc(-c3ccc4c(c3)N([C@H]3C[C@@H](N5CCCCC5)C3)C(=O)C43CCN(C(=O)c4cnn(C[C@H]5CC[C@H](Nc6cccc7c6C(=O)N(C6CCC(=O)NC6=O)C7=O)CC5)c4)CC3)cc3ncn(C(C)C)c23)cc1C(=O)NC(C)C` (stereo partly drawn) [Example 70, 4-fluoro-2-methyl-5-({6-[2-oxo-1′-(1-{[(1R,4R)-4-({2-[2,6-dioxopiperidin-3-yl]-1,3-dioxo-2,3-dihydro-1H-isoindol-4-yl}amino)cyclohexyl]methyl}-1H-pyrazole-4-carbonyl)-1-[(1s,3s)-3-(piperidin-1-yl)cyclobutyl]-1,2-dihydrospiro[indole-3,4′-piperidin]-6-yl]-3-(propan-2-yl)-3H-imidazo[4,5-c]pyridin-4-yl}amino)-N-(propan-2-yl)benzamide], the Dmax fell in the range of 45 to 65%.

With `Cc1cc(F)c(Nc2nc(-c3ccc4c(c3)N([C@H]3C[C@@H](N5CCCCC5)C3)C(=O)C43CCN(C(=O)C4CCN(C(=O)C5CCN(C(=O)CNc6cccc7c6C(=O)N(C6CCC(=O)NC6=O)C7=O)CC5)C4)CC3)cc3ncn(C(C)C)c23)cc1C(=O)NC(C)C` (stereo partly drawn) [Example 49], the Dmax fell in the range of 45 to 65%.

The compound `Cc1cc(F)c(Nc2nc(-c3ccc4c(c3)N([C@H]3C[C@@H](N5CCCCC5)C3)C(=O)C43CCN(C(=O)[C@@H]4CCN(C(=O)[C@H]5CC[C@H](Nc6cccc7c6C(=O)N(C6CCC(=O)NC6=O)C7=O)CC5)C4)CC3)cc3ncn(C(C)C)c23)cc1C(=O)NC(C)C` (stereo partly drawn) [Example 52, 4-fluoro-2-methyl-5-[(6-{2-oxo-1′-[(3R)-1-[(1R,4R)-4-({2-[2,6-dioxopiperidin-3-yl]-1,3-dioxo-2,3-dihydro-1H-isoindol-4-yl}amino)cyclohexanecarbonyl]pyrrolidine-3-carbonyl]-1-[(1s,3s)-3-(piperidin-1-yl)cyclobutyl]-1,2-dihydrospiro[indole-3,4′-piperidin]-6-yl}-3-(propan-2-yl)-3H-imidazo[4,5-c]pyridin-4-yl)amino]-N-(propan-2-yl)benzamide] gave a Dmax of 45 to 65%.

As for `Cc1cc(F)c(Nc2nc(-c3ccc4c(c3)N([C@H]3C[C@@H](N5CCCCC5)C3)C(=O)C43CCN(C(=O)c4ccc(C(=O)N5CCN(c6ccc7c(c6)C(=O)N(C6CCC(=O)NC6=O)C7=O)CC5)cc4Cl)CC3)cc3ncn(C(C)C)c23)cc1C(=O)NC(C)C` (stereo partly drawn) [Example 71, 5-[(6-{1′-[2-chloro-4-(4-{2-[2,6-dioxopiperidin-3-yl]-1,3-dioxo-2,3-dihydro-1H-isoindol-5-yl}piperazine-1-carbonyl)benzoyl]-2-oxo-1-[(1s,3s)-3-(piperidin-1-yl)cyclobutyl]-1,2-dihydrospiro[indole-3,4′-piperidin]-6-yl}-3-(propan-2-yl)-3H-imidazo[4,5-c]pyridin-4-yl)amino]-4-fluoro-2-methyl-N-(propan-2-yl)benzamide], the Dmax is > 65%.

For the compound `Cc1cc(F)c(Nc2nc(-c3ccc4c(c3)N([C@H]3C[C@@H](N5CCCCC5)C3)C(=O)C43CCN(C(=O)C4CCN(C(=O)C5CCN(c6cccc7c6C(=O)N(C6CCC(=O)NC6=O)C7=O)CC5)C4)CC3)cc3ncn(C(C)C)c23)cc1C(=O)NC(C)C` (mixture of isomers) [Example 25, 5-[(6-{1′-[1-(1-{2-[(3RS)-2,6-dioxopiperidin-3-yl]-1,3-dioxo-2,3-dihydro-1H-isoindol-4-yl}piperidine-4-carbonyl)pyrrolidine-3-carbonyl]-2-oxo-1-[(1s,3s)-3-(piperidin-1-yl)cyclobutyl]-1,2-dihydrospiro[indole-3,4′-piperidin]-6-yl}-3-(propan-2-yl)-3H-imidazo[4,5-c]pyridin-4-yl)amino]-4-fluoro-2-methyl-N-(propan-2-yl)benzamide], the Dmax was in the range of 45 to 65%.

With `Cc1cc(F)c(Nc2nc(-c3ccc4c(c3)N([C@H]3C[C@@H](N5CCCCC5)C3)C(=O)C43CCN(C(=O)C4CCN(C(=O)[C@H]5CC[C@H](N(C)c6cccc7c6C(=O)N(C6CCC(=O)NC6=O)C7=O)CC5)CC4)CC3)cc3ncn(C(C)C)c23)cc1C(=O)NC(C)C` (stereo partly drawn) [Example 66, 4-fluoro-2-methyl-5-{[6-(2-oxo-1′-{1-[(1R,4R)-4-({2-[2,6-dioxopiperidin-3-yl]-1,3-dioxo-2,3-dihydro-1H-isoindol-4-yl}(methyl)amino)cyclohexanecarbonyl]piperidine-4-carbonyl}-1-[(1s,3s)-3-(piperidin-1-yl)cyclobutyl]-1,2-dihydrospiro[indole-3,4′-piperidin]-6-yl)-3-(propan-2-yl)-3H-imidazo[4,5-c]pyridin-4-yl]amino}-N-(propan-2-yl)benzamide], the Dmax was > 65%.
